Data as given in BindingDB's records for patent US20240109865 (Tyra Biosciences, 2024).

Legend:
Test in all cases: Kinase Assay
[1] = molecular target: Fibroblast growth factor receptor 2 (Homo sapiens, UniProt P21802)
Procedure: (§1) Kinase-tagged T7 phage strains were prepared in an E. coli host derived from the BL21 strain. E. coli were grown to log-phase and infected with T7 phage and incubated with shaking at 32° C. until lysis. The lysates were centrifuged and filtered to remove cell debris. […] The liganded beads were blocked with excess biotin and washed with blocking buffer SeaBlock (Pierce), […], 1 mM DTT to remove unbound ligand and to reduce non-specific binding. […] Kds were determined using an 11-point 3-fold compound dilution series with three DMSO control points. […] The compounds were then diluted directly into the assays such that the final concentration of DMSO was 0.9%. All reactions performed in polypropylene 384-well plate. Each was a final volume of 0.02 ml.

[2] = molecular target: Fibroblast growth factor receptor 1 (Homo sapiens, UniProt P11362)
Fibroblast growth factor receptor 1, sequence (P11362 whole entry): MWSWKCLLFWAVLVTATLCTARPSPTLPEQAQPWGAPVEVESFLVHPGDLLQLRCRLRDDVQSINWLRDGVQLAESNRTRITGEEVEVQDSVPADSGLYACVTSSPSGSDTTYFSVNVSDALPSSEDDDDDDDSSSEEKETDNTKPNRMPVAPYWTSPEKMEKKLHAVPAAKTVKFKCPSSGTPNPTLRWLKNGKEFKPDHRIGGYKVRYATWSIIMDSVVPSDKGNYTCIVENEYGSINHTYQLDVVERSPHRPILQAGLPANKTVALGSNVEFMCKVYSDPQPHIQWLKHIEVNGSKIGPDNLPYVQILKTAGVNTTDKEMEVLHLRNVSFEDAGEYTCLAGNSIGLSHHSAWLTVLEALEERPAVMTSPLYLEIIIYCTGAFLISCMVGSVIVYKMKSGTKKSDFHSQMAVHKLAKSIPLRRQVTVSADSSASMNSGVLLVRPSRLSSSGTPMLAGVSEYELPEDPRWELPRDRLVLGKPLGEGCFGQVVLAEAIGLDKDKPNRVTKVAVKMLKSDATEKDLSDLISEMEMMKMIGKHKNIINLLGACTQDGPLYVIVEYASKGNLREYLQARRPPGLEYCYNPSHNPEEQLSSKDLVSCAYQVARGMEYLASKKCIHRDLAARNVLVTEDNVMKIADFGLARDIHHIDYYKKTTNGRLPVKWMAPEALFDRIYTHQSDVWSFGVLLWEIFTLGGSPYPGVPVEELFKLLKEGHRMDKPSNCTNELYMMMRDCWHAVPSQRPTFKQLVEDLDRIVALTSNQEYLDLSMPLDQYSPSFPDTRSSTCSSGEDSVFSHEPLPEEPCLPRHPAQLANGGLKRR
Procedure: as §1

[3] = molecular target: Fibroblast growth factor receptor 4 (Homo sapiens, UniProt P22455)
Fibroblast growth factor receptor 4, sequence (P22455 whole entry): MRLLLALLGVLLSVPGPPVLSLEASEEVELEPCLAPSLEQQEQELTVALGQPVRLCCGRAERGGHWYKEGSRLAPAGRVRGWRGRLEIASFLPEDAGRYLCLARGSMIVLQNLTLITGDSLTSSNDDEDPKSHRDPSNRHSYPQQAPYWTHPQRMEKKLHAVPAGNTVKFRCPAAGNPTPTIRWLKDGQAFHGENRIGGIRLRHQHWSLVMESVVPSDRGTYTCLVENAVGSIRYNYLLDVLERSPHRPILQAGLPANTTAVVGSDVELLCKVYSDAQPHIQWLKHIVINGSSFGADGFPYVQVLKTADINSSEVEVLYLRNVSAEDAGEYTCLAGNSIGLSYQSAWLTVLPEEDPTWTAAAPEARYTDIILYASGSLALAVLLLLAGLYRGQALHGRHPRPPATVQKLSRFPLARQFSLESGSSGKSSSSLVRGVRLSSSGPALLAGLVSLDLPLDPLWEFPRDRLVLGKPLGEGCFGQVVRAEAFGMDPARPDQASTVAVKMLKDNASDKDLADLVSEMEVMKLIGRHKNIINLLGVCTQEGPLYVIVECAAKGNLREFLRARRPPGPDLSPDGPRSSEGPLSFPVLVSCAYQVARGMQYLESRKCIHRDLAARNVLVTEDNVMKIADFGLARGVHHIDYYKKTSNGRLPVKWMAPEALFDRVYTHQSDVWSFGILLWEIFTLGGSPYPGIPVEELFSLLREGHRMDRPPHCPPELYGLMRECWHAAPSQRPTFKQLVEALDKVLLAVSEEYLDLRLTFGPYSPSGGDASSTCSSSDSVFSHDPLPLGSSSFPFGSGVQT
Procedure: as §1

Fibroblast growth factor receptor 2, sequence (P21802 whole entry): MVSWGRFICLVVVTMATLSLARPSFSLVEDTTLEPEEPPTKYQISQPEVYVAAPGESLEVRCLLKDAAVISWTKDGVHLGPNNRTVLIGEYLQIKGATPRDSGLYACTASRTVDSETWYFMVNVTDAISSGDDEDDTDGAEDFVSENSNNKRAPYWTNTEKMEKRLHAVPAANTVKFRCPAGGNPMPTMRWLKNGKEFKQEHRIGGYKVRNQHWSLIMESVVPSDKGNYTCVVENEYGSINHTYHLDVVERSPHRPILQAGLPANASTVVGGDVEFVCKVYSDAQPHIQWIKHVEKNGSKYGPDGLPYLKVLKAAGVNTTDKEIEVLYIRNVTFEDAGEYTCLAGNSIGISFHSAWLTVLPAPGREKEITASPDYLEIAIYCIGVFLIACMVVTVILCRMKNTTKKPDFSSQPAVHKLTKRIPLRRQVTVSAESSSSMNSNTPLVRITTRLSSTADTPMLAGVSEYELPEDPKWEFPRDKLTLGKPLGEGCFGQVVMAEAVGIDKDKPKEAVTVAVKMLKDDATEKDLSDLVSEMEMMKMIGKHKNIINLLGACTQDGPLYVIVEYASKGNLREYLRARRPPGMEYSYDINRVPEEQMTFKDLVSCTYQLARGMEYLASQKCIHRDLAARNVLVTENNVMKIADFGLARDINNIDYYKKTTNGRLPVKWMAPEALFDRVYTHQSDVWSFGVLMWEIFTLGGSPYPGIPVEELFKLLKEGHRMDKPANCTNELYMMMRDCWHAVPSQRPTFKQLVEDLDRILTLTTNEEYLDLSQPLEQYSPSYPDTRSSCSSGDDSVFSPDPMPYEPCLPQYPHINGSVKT

Row | Compound | Kd [1] | Kd [2] | Kd [3]
1 | Cc1cnnc(C)c1[C@@H](C)Oc1ccc2[nH]nc(-c3cnc(N4CCCC4)c(C#N)c3)c2c1 [US20240109865, Example 173.] | > 300 nM | – | –
2 | C[C@@H](Oc1ccc2[nH]nc(-c3ccc(N4CC5(CCOC5)C4)nc3)c2c1)c1c(Cl)cnnc1Cl [US20240109865, Example 223.] | – | > 300 nM | > 300 nM
